Reference: ChEMBL document CHEMBL1126054, “Structure and molecular modeling of GABAA receptor antagonists” (J Med Chem, 1992)

Assays:
[1] = target: GABA-A receptor; anion channel; assay: (§1) Displacement of [3H]GABA from gamma-aminobutyric-acid A (GABA-A) receptor; type: protein-complex assay, Rattus norvegicus
[2] = target: GABA-A receptor; anion channel; assay: Displacement of [3H]muscimol from Gamma-aminobutyric acid A (GABA-A) receptor; type: protein-complex assay, Rattus norvegicus
[3] = as §1; parameters: species or system Rattus norvegicus

IC50 [1] [µM]	SMILES	also measured
16	Oc1onc2c1CCNCC2	–
0.02	CC12CC(=O)C3C(CCC4CC(O)CCC43C)C1CC(=N)N2 (stereo not given)	–
–	c1ccc2c(c1)Cc1ccccc1-n1c-2nnc1N1CCNCC1 [PITRAZEPINE]	IC50 [2]: 0.24 µM
–	O=C1C=C2C=C[C@@H]3C[C@@]2(O1)[C@H]1CCCCN31 [SECURININE]	IC50 [3]: 50 µM

SMILES	IC50 [1] [µM]	also measured
COc1cc2c3cc1Oc1cc(ccc1O)C[C@@H]1c4c(cc(OC)c(O)c4Oc4ccc(cc4)C[C@@H]3N(C)CC2)CC[N+]1(C)C	58	–
